pKd: −log10 of the molar value. Where two headings read alike, the source gives them in different places. Ends that are not written are not given here.
Key:
Test in all cases: Holdup assay
Assay type in all cases: binding
[1] = biological target: T1, PDZD2_2 PDZ (Homo sapiens, UniProt O15018); conditions: for Kd: composite holdup affinity, 0.00=below quantification threshold, read-out: COMP pKd (converted)
T1 sequence (O15018 334-419 limits assumed): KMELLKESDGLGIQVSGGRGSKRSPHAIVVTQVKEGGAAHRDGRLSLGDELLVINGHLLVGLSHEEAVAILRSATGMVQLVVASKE

[2] = biological target: T2, PDZD7_3 PDZ (Homo sapiens, UniProt Q9H5P4); conditions: for Kd: composite holdup affinity, 0.00=below quantification threshold, read-out: COMP pKd (converted)
T2 sequence (Q9H5P4 862-934 limits assumed): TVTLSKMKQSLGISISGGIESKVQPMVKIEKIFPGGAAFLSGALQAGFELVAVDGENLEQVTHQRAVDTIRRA

[3] = biological target: T3, DLG3_2 PDZ (Homo sapiens, UniProt Q92796); conditions: for Kd: composite holdup affinity, 0.00=below quantification threshold, read-out: COMP pKd (converted)
T3 sequence (Q92796 226-311 limits assumed): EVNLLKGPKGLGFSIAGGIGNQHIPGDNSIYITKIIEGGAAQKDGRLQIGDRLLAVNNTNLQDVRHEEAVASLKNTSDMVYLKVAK

[4] = biological target: DLG4_2 PDZ (Homo sapiens, UniProt P78352); conditions: for Kd: composite holdup affinity, 0.00=below quantification threshold, read-out: COMP pKd (converted)
Chain of DLG4_2 PDZ (P78352 160-246 limits assumed): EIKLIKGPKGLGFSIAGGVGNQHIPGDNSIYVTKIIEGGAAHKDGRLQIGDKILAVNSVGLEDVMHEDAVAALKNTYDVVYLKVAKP

[5] = biological target: DLG1_1 PDZ (Homo sapiens, UniProt Q12959); conditions: for Kd: composite holdup affinity, 0.00=below quantification threshold, read-out: COMP pKd (converted)
[6] = biological target: T4, PTPN3 PDZ (Homo sapiens, UniProt P26045); conditions: for Kd: composite holdup affinity, 0.00=below quantification threshold, read-out: COMP pKd (converted)
T4 sequence (P26045 510-582 limits assumed): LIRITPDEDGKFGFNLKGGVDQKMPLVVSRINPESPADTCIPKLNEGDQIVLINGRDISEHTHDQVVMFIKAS

[7] = biological target: MAST1 PDZ (Homo sapiens, UniProt Q9Y2H9)
Chain of MAST1 PDZ (Q9Y2H9 967-1055 limits assumed): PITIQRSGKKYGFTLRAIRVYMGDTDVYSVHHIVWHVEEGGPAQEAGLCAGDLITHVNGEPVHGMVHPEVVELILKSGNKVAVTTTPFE

[8] = biological target: RHPN1 PDZ (Homo sapiens, UniProt Q8TCX5)
Chain of RHPN1 PDZ (Q8TCX5 513-592 limits assumed): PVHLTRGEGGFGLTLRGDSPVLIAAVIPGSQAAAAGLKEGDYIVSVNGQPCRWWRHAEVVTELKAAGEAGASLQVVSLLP

[9] = biological target: T5, SCRIB2 PDZ (Homo sapiens, UniProt Q14160); conditions: for Kd: composite holdup affinity, 0.00=below quantification threshold, read-out: COMP pKd (converted)
T5 sequence (Q14160 862-950 limits assumed): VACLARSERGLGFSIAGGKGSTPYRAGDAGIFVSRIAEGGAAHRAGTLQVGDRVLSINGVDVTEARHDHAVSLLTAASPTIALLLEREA

[10] = biological target: T6, PDZRN3_1 PDZ (Homo sapiens, UniProt Q9UPQ7); conditions: for Kd: composite holdup affinity, 0.00=below quantification threshold, read-out: COMP pKd (converted)
T6 sequence (Q9UPQ7 249-339 limits assumed): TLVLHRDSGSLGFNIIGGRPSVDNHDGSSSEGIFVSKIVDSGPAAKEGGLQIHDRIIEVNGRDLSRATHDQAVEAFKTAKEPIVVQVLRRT

[11] = biological target: MAGI2_5 PDZ (Homo sapiens, UniProt Q86UL8); conditions: for Kd: composite holdup affinity, 0.00=below quantification threshold, read-out: COMP pKd (converted)
Chain of MAGI2_5 PDZ (Q86UL8 920-1010 limits assumed): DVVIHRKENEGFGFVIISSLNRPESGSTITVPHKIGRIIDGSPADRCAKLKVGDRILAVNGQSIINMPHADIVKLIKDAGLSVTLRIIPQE

[12] = biological target: T7, ARHGEF12 PDZ (Homo sapiens, UniProt Q9NZN5); conditions: for Kd: composite holdup affinity, 0.00=below quantification threshold, read-out: COMP pKd (converted)
T7 sequence (Q9NZN5 72-151 limits assumed): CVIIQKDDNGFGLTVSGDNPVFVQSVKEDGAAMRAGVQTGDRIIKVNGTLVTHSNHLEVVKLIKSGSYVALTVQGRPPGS

[13] = biological target: TJP2_1 PDZ (Homo sapiens, UniProt Q9UDY2)
Chain of TJP2_1 PDZ (Q9UDY2 33-120 limits assumed): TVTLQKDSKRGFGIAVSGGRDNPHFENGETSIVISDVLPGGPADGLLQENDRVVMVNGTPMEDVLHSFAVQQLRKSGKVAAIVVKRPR

[14] = biological target: Inadl_8 PDZ (Homo sapiens, UniProt Q8NI35)
Chain of Inadl_8 PDZ (Q8NI35 1437-1520 limits assumed): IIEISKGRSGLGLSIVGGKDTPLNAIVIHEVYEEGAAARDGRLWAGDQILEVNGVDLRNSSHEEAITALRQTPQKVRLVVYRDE

[15] = biological target: T8, DLG2_3 PDZ (Homo sapiens, UniProt Q15700); conditions: for Kd: composite holdup affinity, 0.00=below quantification threshold, read-out: COMP pKd (converted)
T8 sequence (Q15700 421-501 limits assumed): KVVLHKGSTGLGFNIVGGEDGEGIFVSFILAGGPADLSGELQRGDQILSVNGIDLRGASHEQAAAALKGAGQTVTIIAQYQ

[16] = biological target: DLG4_3 PDZ (Homo sapiens, UniProt P78352); conditions: for Kd: composite holdup affinity, 0.00=below quantification threshold, read-out: COMP pKd (converted)
Chain of DLG4_3 PDZ (P78352 313-393 limits assumed): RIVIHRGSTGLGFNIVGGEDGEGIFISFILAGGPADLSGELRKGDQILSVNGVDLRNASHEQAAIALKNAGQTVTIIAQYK

[17] = biological target: DLG1_3 PDZ (Homo sapiens, UniProt Q12959); conditions: for Kd: composite holdup affinity, 0.00=below quantification threshold, read-out: COMP pKd (converted)
[18] = biological target: MAGI2_3 PDZ (Homo sapiens, UniProt Q86UL8)
Chain of MAGI2_3 PDZ (Q86UL8 605-683 limits assumed): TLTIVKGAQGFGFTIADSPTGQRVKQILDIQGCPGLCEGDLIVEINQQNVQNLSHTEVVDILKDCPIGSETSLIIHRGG

[19] = biological target: NOS1 PDZ (Homo sapiens, UniProt P29475); conditions: for Kd: composite holdup affinity, 0.00=below quantification threshold, read-out: COMP pKd (converted)
Chain of NOS1 PDZ (P29475 17-99 limits assumed): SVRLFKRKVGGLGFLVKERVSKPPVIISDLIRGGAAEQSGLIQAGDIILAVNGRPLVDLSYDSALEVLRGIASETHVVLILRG

[20] = biological target: LRRC7 PDZ (Homo sapiens, UniProt Q96NW7)
Chain of LRRC7 PDZ (Q96NW7 1450-1535 limits assumed): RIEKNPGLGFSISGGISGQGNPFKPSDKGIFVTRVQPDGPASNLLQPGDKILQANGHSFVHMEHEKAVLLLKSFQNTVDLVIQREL

[21] = biological target: Inadl_5 PDZ (Homo sapiens, UniProt Q8NI35)
Chain of Inadl_5 PDZ (Q8NI35 686-772 limits assumed): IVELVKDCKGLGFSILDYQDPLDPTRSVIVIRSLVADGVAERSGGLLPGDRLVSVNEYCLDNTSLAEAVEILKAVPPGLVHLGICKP

[22] = biological target: FRMPD2_1 PDZ (Homo sapiens, UniProt Q68DX3)
Chain of FRMPD2_1 PDZ (Q68DX3 775-861 limits assumed): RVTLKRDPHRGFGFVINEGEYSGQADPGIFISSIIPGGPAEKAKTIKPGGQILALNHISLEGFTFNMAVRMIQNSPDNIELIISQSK

[23] = biological target: LIN7A PDZ (Homo sapiens, UniProt O14910)
Chain of LIN7A PDZ (O14910 108-190 limits assumed): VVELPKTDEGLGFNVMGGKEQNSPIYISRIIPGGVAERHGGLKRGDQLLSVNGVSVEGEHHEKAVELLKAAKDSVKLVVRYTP

[24] = biological target: CNKSR3 PDZ (Homo sapiens, UniProt Q6P9H4)
Chain of CNKSR3 PDZ (Q6P9H4 211-293 limits assumed): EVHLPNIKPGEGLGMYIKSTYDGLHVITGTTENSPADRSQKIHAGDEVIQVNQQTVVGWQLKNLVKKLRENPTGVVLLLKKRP
Text: Supplement 41467_2022_33018_MOESM4_ESM.xlsx, sheet "PPI_convert" | column: CNKSR3

[25] = biological target: DLG2_1 PDZ (Homo sapiens, UniProt Q15700)
Chain of DLG2_1 PDZ (Q15700 98-184): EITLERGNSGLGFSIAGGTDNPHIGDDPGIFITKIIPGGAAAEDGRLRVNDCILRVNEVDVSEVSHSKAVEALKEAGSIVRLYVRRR

[26] = biological target: GIPC1 PDZ (Homo sapiens, UniProt O14908)
Chain of GIPC1 PDZ (O14908 133-213 limits assumed): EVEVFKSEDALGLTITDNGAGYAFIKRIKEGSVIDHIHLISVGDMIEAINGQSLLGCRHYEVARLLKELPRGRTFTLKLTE
Text: Supplement 41467_2022_33018_MOESM4_ESM.xlsx, sheet "PPI_convert" | column: GIPC1

[27] = biological target: LNX1_4 PDZ (Homo sapiens, UniProt Q8TBB1)
Chain of LNX1_4 PDZ (Q8TBB1 638-724 limits assumed): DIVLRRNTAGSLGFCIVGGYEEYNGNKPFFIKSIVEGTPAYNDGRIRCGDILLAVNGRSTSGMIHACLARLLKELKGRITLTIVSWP

[28] = biological target: MPDZ_4 PDZ (Homo sapiens, UniProt O75970); conditions: sheet PPI_convert; read-out: affinity to PDZ MPDZ_4 (converted)
Chain of MPDZ_4 PDZ (O75970 553-634 limits assumed): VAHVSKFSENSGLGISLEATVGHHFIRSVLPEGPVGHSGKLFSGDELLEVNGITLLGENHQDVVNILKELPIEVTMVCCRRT
Text: Supplement 41467_2022_33018_MOESM4_ESM.xlsx, sheet "PPI_convert" | column: MPDZ_4

[29] = biological target: PDLIM4 PDZ (Homo sapiens, UniProt P50479); conditions: sheet PPI_convert; read-out: affinity to PDZ PDLIM4 (converted)
Chain of PDLIM4 PDZ (P50479 1-84 limits assumed): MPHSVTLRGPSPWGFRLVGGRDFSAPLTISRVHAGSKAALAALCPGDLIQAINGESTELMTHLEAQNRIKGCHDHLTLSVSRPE
Text: Supplement 41467_2022_33018_MOESM4_ESM.xlsx, sheet "PPI_convert" | column: PDLIM4

[30] = composite holdup affinity, 0.00=below quantification threshold, read-out: COMP pKd (converted)

CC(C)C[C@H](NC(=O)[C@@H](N)CCCNC(=N)N)C(=O)N[C@@H](CCC(N)=O)C(=O)N[C@@H](CCCNC(=N)N)C(=O)N[C@@H](CCCNC(=N)N)C(=O)N[C@@H](CCCNC(=N)N)C(=O)N[C@@H](CCC(=O)O)C(=O)N[C@H](C(=O)N[C@@H](CCC(N)=O)C(=O)N[C@H](C(=O)O)C(C)C)[C@@H](C)O [HPV18-E6]
pKd [1]: 3.36 | pKd [2]: 3.98 | pKd [3]: 5.46 | pKd [4]: 5.46 | pKd [5]: 5.26 | pKd [6]: 4.49 | pKd [7]: 5.33 | pKd [8]: 3.63 | pKd [9]: 4.44 | pKd [10]: 4.82 | pKd [11]: 3.78 | pKd [12]: 3.91 | pKd [13]: 3.89 | pKd [14]: 3.32 | pKd [15]: 5.06 | pKd [16]: 5.74 | pKd [17]: 5.02 | pKd [18]: 4.15 | pKd [19]: 3.71 | pKd [20]: 3.14 | pKd [21]: 3.52 | pKd [22]: 4.10 | pKd [23]: 3.40 | pKd [24]: 4.10 | pKd [25]: 5.11 | pKd [26]: 4.44 | pKd [27]: 4.03

SKPTRRETEV [HPV35-E6]
Kd [1]: 166 µM | Kd [2]: 50.1 µM | Kd [3]: 3.24 µM | Kd [4]: 3.09 µM | Kd [5]: 9.55 µM | Kd [6]: 11.7 µM | Kd [9]: 20 µM | Kd [10]: 12.9 µM | Kd [11]: 66.1 µM | Kd [12]: 87.1 µM | Kd [15]: 4.9 µM | Kd [16]: 6.31 µM | Kd [17]: 17 µM | Kd [19]: 182 µM | Kd [20, 30]: 257 µM | Kd [22, 30]: 324 µM | Kd ([24]; sheet PPI_convert, read-out: affinity to PDZ CNKSR3 (converted)): 269 µM | Kd ([25]; sheet PPI_convert, read-out: affinity to PDZ DLG2_1 (converted)): 12.3 µM | Kd ([26]; sheet PPI_convert, read-out: affinity to PDZ GIPC1 (converted)): 20.4 µM | Kd ([27]; sheet PPI_convert, read-out: affinity to PDZ LNX1_4 (converted)): 324 µM | Kd [28]: 282 µM | Kd [29]: 69.2 µM

SRRPRTETQV [HPV31-E6]
Kd [1]: 200 µM | Kd [2]: 195 µM | Kd [3]: 3.89 µM | Kd [4]: 4.37 µM | Kd [5]: 6.92 µM | Kd [6]: 21.9 µM | Kd [7, 30]: 38 µM | Kd [8, 30]: 182 µM | Kd [9]: 41.7 µM | Kd [10]: 81.3 µM | Kd [11]: 129 µM | Kd [12]: 138 µM | Kd [13, 30]: 219 µM | Kd [15]: 7.94 µM | Kd [16]: 7.94 µM | Kd [17]: 25.1 µM | Kd [18, 30]: 79.4 µM | Kd [19]: 123 µM | Kd [23, 30]: 309 µM
